Legend:
[1] = wn = mass fraction of the nth substance listed; settings: 101 kPa, Liquid; for mass density: Pycnometric method; for viscosity: Capillary tube (Ostwald / Ubbelohde) method
[2] = 101 kPa, Liquid, Capillary tube (Ostwald / Ubbelohde) method
[3] = mn = molality of the nth substance listed, in mol/kg; settings: 101 kPa, Liquid, m2 = 0; for viscosity: Capillary tube (Ostwald / Ubbelohde) method

O=C[C@H](O)[C@@H](O)[C@H](O)CO [D-xylose] + O
[1]
Settings	mass density, w1 = 0.025 [kg/m3]	mass density, w1 = 0.05 [kg/m3]	viscosity, w1 = 0.025 [mPa·s]	viscosity, w1 = 0.05 [mPa·s]
293.15 K	1007.24	1015.93	–	–
298.15 K	1005.63	1014.27	0.9096	0.964
303.15 K	1004.03	1012.62	0.8077	0.8547
308.15 K	1002.43	1010.96	0.7269	0.7637
313.15 K	1000.84	1009.31	0.6571	0.6869
318.15 K	999.23	1007.66	0.5992	0.6253

O=C[C@H](O)[C@@H](O)[C@@H](O)CO [L-arabinose] + O
[1]
Settings	mass density, w1 = 0.025 [kg/m3]	mass density, w1 = 0.05 [kg/m3]	viscosity, w1 = 0.025 [mPa·s]	viscosity, w1 = 0.05 [mPa·s]
293.15 K	1007.35	1016.09	–	–
298.15 K	1005.77	1014.44	0.9141	0.9695
303.15 K	1004.18	1012.79	0.8116	0.8573
308.15 K	1002.6	1011.13	0.7304	0.7658
313.15 K	1001.01	1009.46	0.6591	0.689
318.15 K	999.43	1007.8	0.6006	0.6295

O [water]
[2]
Settings	viscosity [mPa·s]
298.15 K	0.8903
303.15 K	0.7973
308.15 K	0.719
313.15 K	0.6526
318.15 K	0.5972

O [water] + N=C(N)NCCC[C@H](N)C(=O)O
[3]
Settings	viscosity [mPa·s]
298.15 K	0.8903
303.15 K	0.7973
308.15 K	0.719
313.15 K	0.6526
318.15 K	0.5972

Settings	mass density [kg/m3]
[3], 308.15 K, Pycnometric method	994.07

— the NIST ThermoML archive (doi:10.1016/j.jct.2013.04.001)
